{
  "source": "patent US10709688B2",
  "about": "“Agent for treating synucleinopathy” (TOHOKU UNIVERSITY, priority 2016, dated 2020)",
  "key": {"[1]": {"test_system": "MPTP Parkinson's disease model C57BL6 N mice", "experiment": "Test Example 10: cognitive function in MPTP Parkinson's disease model mice", "assay_type": "in vivo, mouse", "conditions": "p.o. once every day (Example 1: 0.1, 0.5 or 1.0 mg/kg; others 1.0 mg/kg), four weeks after MPTP, FIG. 10", "experimental": "MPTP (25 mg/kg, i.p.) was administered once every day for 5 consecutive days to a 10 week old male C57BL6 N mice to prepare a Parkinson's disease model mice. […] Four weeks after administration of MPTP, at which time cognitive dysfunction was observed, the cognitive function was evaluated by a novel object recognition test and a passive avoidance test. The passive avoidance test was performed by putting a mouse in a light room and applying electric shock (0.3 mA, 2 second) on the mouse when it entered the dark room in the train run. Twenty four hours later, the mouse was put in the light room again, and the time until the mouse entered the dark room was measured."}, "[2]": {"test_system": "TH and α-synuclein double positive cells of substantia nigra, MPTP model mice", "experiment": "Test Example 12: suppression of α-synuclein aggregation in MPTP Parkinson's disease model mice", "assay_type": "in vivo, mouse", "conditions": "p.o. once every day (Example 1: 0.1, 0.3 or 1.0 mg/kg; others 1.0 mg/kg), four weeks after MPTP, FIG. 12", "experimental": "MPTP (25 mg/kg, i.p.) was administered once every day for 5 consecutive days to a 10 week old male C57BL6 N mice to prepare a Parkinson's disease model mice. […] Four weeks after MPTP administration, at which time a loss in the dopamine neuron and formation of α-synuclein multimers are observed, a mouse was fixed under perfusion to prepare a brain slice 50 μm thick that includes a substantia nigra region. The brain slice was reacted with an anti-TH antibody (mouse monoclonal antibody 22941 produced by Immunostar, 1:1000) and an anti-α-synuclein antibody (rabbit polyclonal antibody SC-7011-R produced by Santa Cruz, 1:200) and detected by a fluorescence-labeled, secondary antibody (Alexa 488 anti-rabbit IgG (produced by Jackson ImmunoResearch, 1:500)) to evaluate the number of positive cells."}, "GST-FABP4": {"target": "GST-FABP4 (Mus musculus (Mouse), UniProt P04117)", "sequence (P04117 whole entry)": "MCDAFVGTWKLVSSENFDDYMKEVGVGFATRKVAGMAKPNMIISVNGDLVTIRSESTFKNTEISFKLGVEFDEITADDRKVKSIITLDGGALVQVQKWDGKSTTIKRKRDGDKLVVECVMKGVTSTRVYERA", "experiment": "Test Example 13: affinity of FABP ligand using ANS, GST-FABP4", "conditions": "read-out: Kd value of FABP against the ligands, GST-FABP4; ANS fluorescence; average of three measurements±SE", "procedure": "After GST-FABP3 and GST-FABP4 were respectively expressed in the Escherichia coli [BL21 (DE3) strain], affinity purification was performed using a glutathione column.\nPurification of the GST binding protein was performed using a GST purification kit (Takara Bio USA). After the Escherichia coli was recovered by centrifuging, the accessory extraction buffer and aluminum oxide powder were added and the mixture was ground in the mortar. The centrifuged supernatant was added to the accessory glutathione column and left stationary on ice for 30 min. Then, the supernatant in the column was thrown away, and the remaining matter was washed with the extraction buffer, and subsequently subjected to elution using an elution buffer including glutathione. The protein concentration of the elution product was calculated from the absorbance at 280 nm, and used as an ANS assay.\nThe fluorescence intensity at the respective ligand concentrations was converted to a relative value (%) against the ANS fluorescence intensity under the absence of ligand, then the dissociation constant Kd(nM) was calculated by a nonrecurring analysis using the following equation.\nF: Relative fluorescence intensity at a certain condition (%);\nKa: Reciprocal of dissociation constant Kd (nM^−1);\nFmax*: Relative fluorescence intensity when FABP is fully occupied by ligands."}, "GST-FABP3": {"target": "GST-FABP3 (Mus musculus (Mouse), UniProt P11404)", "sequence (P11404 whole entry)": "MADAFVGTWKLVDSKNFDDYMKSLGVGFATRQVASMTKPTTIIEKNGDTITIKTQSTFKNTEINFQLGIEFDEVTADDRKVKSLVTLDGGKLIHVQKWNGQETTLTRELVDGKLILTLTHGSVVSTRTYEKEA", "experiment": "Test Example 13: affinity of FABP ligand using ANS, GST-FABP3", "assay_type": "binding", "conditions": "ANS fluorescence; average of three measurements±SE; read-out: Kd value of FABP against the ligands, GST-FABP3", "experimental": "Pt: FABP protein concentration (=400 nM);"}, "[3]": {"test_system": "dopamine neurons (TH positive cells) of substantia nigra, MPTP model mice", "experiment": "Test Example 11: dopamine neuroprotection in MPTP Parkinson's disease model mice", "assay_type": "in vivo, mouse", "conditions": "p.o. once every day (Example 1: 0.1, 0.3 or 1.0 mg/kg; others 1.0 mg/kg), four weeks after MPTP, FIG. 11", "experimental": "MPTP (25 mg/kg, i.p.) was administered once every day for 5 consecutive days to a 10 week old male C57BL6 N mice to prepare a Parkinson's disease model mice. […] Four weeks after MPTP administration, at which time a loss in the dopamine neuron and formation of α-synuclein multimers are observed, the mouse was fixed under perfusion to prepare a brain slice 50 μm thick that includes a substantia nigra region."}, "[4]": {"test_system": "MPTP Parkinson's disease model C57BL6 N mice", "experiment": "Test Example 9: motor function in MPTP Parkinson's disease model mice", "assay_type": "in vivo, mouse", "conditions": "p.o. once every day (Example 1: 0.1, 0.5 or 1.0 mg/kg; others 1.0 mg/kg), three weeks after MPTP, FIG. 9", "experimental": "MPTP (25 mg/kg, i.p.) was administered once every day for 5 consecutive days to a 10 week old male C57BL6 N mice to prepare a Parkinson's disease model mice. […] Three weeks after administration of MPTP, at which time motor dysfunction was observed, the motor function was evaluated by a rotarod test and beam walking test."}, "[5]": {"test_system": "MPTP Parkinson's disease model C57BL6 N mice", "experiment": "Test Example 7: cognitive function in MPTP Parkinson's disease model animal", "assay_type": "in vivo, mouse", "conditions": "1.0 mg/kg p.o. daily 2 weeks, four weeks after MPTP, FIG. 7", "experimental": "1-Methyl-4-phenyl-1,2,3,6-tetrahydropyridine (MPTP, 25 mg/kg, i.p., purchased from Sigma-Aldrich (St Louis, Mo.)), which is a dopamine neurotoxin, was administered once every day for 5 consecutive days to a 10 week old male C57BL6 N mice, to prepare a Parkinson's disease model animal. From 24 hours after the final administration of MPTP, the solvent or FABP3 ligand (compound of Example 3, 1.0 mg/kg, p.o., each group n=7) was administered once every day for 2 weeks. Four weeks after administration of MPTP, at which time cognitive dysfunction was observed, the cognitive function was evaluated by a novel object recognition test."}, "FABP3": {"target": "FABP3 (Homo sapiens (Human), UniProt P05413)", "sequence (P05413 whole entry, species assumed)": "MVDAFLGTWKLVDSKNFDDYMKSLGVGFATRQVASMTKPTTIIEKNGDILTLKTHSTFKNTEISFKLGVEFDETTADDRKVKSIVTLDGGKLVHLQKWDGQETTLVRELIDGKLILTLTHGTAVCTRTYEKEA", "experiment": "Evaluation of FABP3 ligand activity, fluorescent displacement assay using 1,8-ANS", "assay_type": "binding", "conditions": "1,8-ANS displacement; average of two measurements", "experimental": "Adopted for evaluation in the evaluation of FABP3 ligand activity was a fluorescent displacement assay using 1,8-ANS (1-anilino-8-naphthalenesulfonic acid). Fluorescent materials such as 1,8-ANS are characterized by an increase in the fluorescent intensity under a hydrophobic environment. […] Ethanol was used as the dilution solvent of the compounds.\nTo each well was added as a detection reagent, a 1,8-ANS (ALDRICH) solution (10 μM, ethanol/sodium phosphate buffer solution=1:4 v/v, 25 μL), and ethanol solutions of compounds diluted to different concentrations were added in an amount of 10 μL each (the final ethanol concentration was 15%). The plate was shaken for 10 sec. in the plate reader and incubated for 10 min. at room temperature. […] Used for measurement was ARVO™ X One by PerkinElmer Japan.\n(§1) Measurement was performed twice each, and the average was adopted as the result. The software, Origin, available from Light Stone was used for calculating IC50."}, "FABP4": {"target": "FABP4 (Homo sapiens (Human), UniProt P15090)", "sequence (P15090 whole entry)": "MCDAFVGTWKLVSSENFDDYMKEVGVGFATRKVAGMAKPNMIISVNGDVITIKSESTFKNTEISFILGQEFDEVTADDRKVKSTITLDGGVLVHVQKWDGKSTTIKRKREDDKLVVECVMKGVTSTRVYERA", "experiment": "Evaluation of FABP4 ligand activity, fluorescent displacement assay using 1,8-ANS (Cayman assay kit)", "assay_type": "binding", "conditions": "1,8-ANS displacement; average of two measurements", "experimental": "An evaluation of FABP4 was performed using a fluorescent displacement assay using 1,8-ANS, similar to FABP3. Used in the evaluation of FABP4 was an assay kit (FABP4 Inhibitor/Ligand Screening Assay Kit) available from Cayman Chemical Company. Ethanol was used as a solvent for dissolving the compound, and an arachidonic acid which comes with the kit was used as a positive control. The measurement procedure was performed similarly to the aforementioned FABP3 assay.\nas §1"}, "[6]": {"test_system": "MPTP Parkinson's disease model mice", "experiment": "Test Example 8: motor function in MPTP Parkinson's disease model animal", "assay_type": "in vivo, mouse", "conditions": "1.0 mg/kg p.o. daily 2 weeks, three weeks after MPTP, FIG. 8", "experimental": "From 24 hours after the final administration of MPTP, the solvent or FABP3 ligand (compound of Example 3) (1.0 mg/kg, p.o., each group n=7) was administered once every day for 2 weeks. Three weeks after administration of MPTP, at which time motor dysfunction was observed, the motor function was evaluated by a rotarod test and beam walking test. […] It was confirmed in both tests that the ligand administered group was fully recovered from the motor dysfunction that developed after MPTP administration."}},
  "data": [
    {"molecule": "O=C(O)CCCOc1ccccc1-c1cc(-c2ccccc2)n(-c2ccc(Cl)c(Cl)c2)n1", "note": "[Example 3, 4-(2-(1-(3,4-Dichlorophenyl)-5-phenyl-1H-pyrazol-3-yl)phenoxy)butanoic acid]", "values": [
      {"measurement": "cognitive function by novel object recognition test and passive avoidance test", "setting": "[1]", "value": "significant effects"},
      {"measurement": "number of TH and α-synuclein double positive cells", "setting": "[2]", "value": "tendency towards improvement"},
      {"measurement": "Kd", "setting": "GST-FABP4", "value": "6.67 ± 1.4", "unit": "µM"},
      {"measurement": "Kd", "setting": "GST-FABP3", "value": "2.22 ± 0.104", "unit": "µM"},
      {"measurement": "number of TH positive cells (dopamine neurons)", "setting": "[3]", "value": "improved significantly"},
      {"measurement": "beam walking test, number of footslips", "setting": "[4]", "value": "improved significantly"},
      {"measurement": "rotarod test, Latency", "setting": "[4]", "value": "improved significantly"},
      {"measurement": "novel object recognition test, cognitive dysfunction", "setting": "[5]", "value": "such dysfunction was not observed"},
      {"measurement": "IC50", "setting": "FABP3", "value": 0.28, "unit": "µM"},
      {"measurement": "IC50", "setting": "FABP4", "value": 1.66, "unit": "µM"},
      {"measurement": "beam walking test, number of footslips", "setting": "[6]", "value": "entirely recovered"},
      {"measurement": "rotarod test, Latency", "setting": "[6]", "value": "recovered fully"}
    ]}
  ]
}
